Data taken from patent publication US8980912B2, “Cyclic amine compound and acaricide” (Nippon Soda Co., Ltd., priority 2010, dated 2015).

Test system: Tetranychus urticae
Assay: Efficacy test against Tetranychus urticae (adult mites on kidney bean plant, spray)
Format: in vivo
Conditions: emulsion diluted to 31 ppm, sprayed; organic phosphorous-resistant adult females; 3 days after spraying
Protocol: Efficacy Test Against Tetranychus urticae
Seventeen organic phosphorous-resistant adult female Tetranychus urticae mites were inoculated onto the first leaves of a kidney bean plant planted in a No. 3 pot 7 to 10 days after germination. Next, an emulsion was prepared having the formula indicated in the aforementioned Preparation example 2. […] The kidney bean plant was then placed in a temperature-controlled room at a temperature of 25° C. and humidity of 65%. The adult insect mortality rates were investigated 3 days after spraying. The test was repeated twice.

## COC(C)COc1cc(C(F)(F)F)ccc1OC1CC2CCCC(C1)N2Oc1ccc(C(F)(F)F)cn1 (stereo not shown) [H-81]
  insect mortality rate: ≥ 80%
